From article PMC8504577, “Evaluation of a Clinically Relevant Drug–Drug Interaction Between Rosuvastatin and Clopidogrel and the Risk of Hepatotoxicity” (Frontiers in Pharmacology, 2021)
Entries after “also recorded” stand apart in the source; their conditions may differ. Read-outs that look alike come from different tables or passages of the source.

What was measured:
[1] = test system: BCRP; conditions: read-out: IC50 BCRP; BCRP-mediated RSV transport, Caco-2 cells; ref Elsby et al. (2016); cited from earlier work
[2] = test system: OATP1B1; conditions: cited from earlier work
[3] = target: T1, OATP1B1 (Homo sapiens, UniProt Q9Y6L6); test: cell-based
T1 sequence (Q9Y6L6 1-691): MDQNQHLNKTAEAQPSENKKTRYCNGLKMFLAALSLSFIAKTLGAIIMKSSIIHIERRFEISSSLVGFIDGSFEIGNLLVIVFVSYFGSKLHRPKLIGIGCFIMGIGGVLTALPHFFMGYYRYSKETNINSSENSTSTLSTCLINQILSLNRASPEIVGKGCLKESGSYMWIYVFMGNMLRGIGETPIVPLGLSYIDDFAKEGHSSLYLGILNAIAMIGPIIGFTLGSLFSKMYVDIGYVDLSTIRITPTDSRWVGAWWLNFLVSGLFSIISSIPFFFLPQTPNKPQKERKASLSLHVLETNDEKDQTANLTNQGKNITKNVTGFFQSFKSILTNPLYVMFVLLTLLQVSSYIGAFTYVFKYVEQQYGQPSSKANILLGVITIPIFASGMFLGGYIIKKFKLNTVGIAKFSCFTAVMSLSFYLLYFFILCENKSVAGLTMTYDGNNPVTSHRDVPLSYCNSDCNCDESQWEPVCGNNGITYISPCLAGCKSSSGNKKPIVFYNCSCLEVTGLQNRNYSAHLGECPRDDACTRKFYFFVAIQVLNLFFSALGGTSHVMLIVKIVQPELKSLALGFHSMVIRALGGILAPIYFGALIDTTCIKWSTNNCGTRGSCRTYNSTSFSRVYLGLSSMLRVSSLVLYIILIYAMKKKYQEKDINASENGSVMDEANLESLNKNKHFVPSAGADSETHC
Description: (§1) The OATP1B1, OATP1B3, and mock cells were cultured in the DMEM medium containing 10% fetal bovine serum, penicillin–streptomycin solution (100 U/mL and 0.1 mg/ml), and 0.5 mg/ml geneticin at 37°C in the presence of 5% CO2. The cells were seeded in a 24-well plate at a density of 4×10^5 cells/well and grown for 80–90% confluence. […] After washing the cells three times with transporter buffer at 4°C, the cells were lysed with liquid nitrogen. The lysates were precipitated with methanol and centrifuged at 12,000 rpm at 4°C for 5 min. The supernatant was analyzed by LC-MS/MS. Protein concentration was determined using the Pierce® BCA Protein Assay Kit. All experiments were performed in triplicate.
(§2) Phoenix WinNonlin® 7.1 (Pharsight Corporation, Mountain View, CA, United States) was used to calculate the pharmacokinetic parameters by the noncompartmental method. IC50 values were obtained by a computer-generated nonlinear least squares fit using GraphPad Prism 8.1 (GraphPad Software, San Diego, CA, United States). Statistical analysis was performed using SPSS ver. 22.0 (IBM, Chicago, IL, United States). The results are presented as mean ± S.D., unless otherwise stated. After testing for the homogeneity of variance, statistical analysis was performed with a one-way ANOVA followed by the LSD post hoc test or unpaired Student’s t-test. A probability (p) of less than 0.05, 0.01, and 0.001 was considered to be statistically significant, highly significant, and extremely significant, respectively.

[4] = target: T2, OATP1B3 (Homo sapiens, UniProt Q9NPD5); test: cell-based
T2 sequence (Q9NPD5 1-702): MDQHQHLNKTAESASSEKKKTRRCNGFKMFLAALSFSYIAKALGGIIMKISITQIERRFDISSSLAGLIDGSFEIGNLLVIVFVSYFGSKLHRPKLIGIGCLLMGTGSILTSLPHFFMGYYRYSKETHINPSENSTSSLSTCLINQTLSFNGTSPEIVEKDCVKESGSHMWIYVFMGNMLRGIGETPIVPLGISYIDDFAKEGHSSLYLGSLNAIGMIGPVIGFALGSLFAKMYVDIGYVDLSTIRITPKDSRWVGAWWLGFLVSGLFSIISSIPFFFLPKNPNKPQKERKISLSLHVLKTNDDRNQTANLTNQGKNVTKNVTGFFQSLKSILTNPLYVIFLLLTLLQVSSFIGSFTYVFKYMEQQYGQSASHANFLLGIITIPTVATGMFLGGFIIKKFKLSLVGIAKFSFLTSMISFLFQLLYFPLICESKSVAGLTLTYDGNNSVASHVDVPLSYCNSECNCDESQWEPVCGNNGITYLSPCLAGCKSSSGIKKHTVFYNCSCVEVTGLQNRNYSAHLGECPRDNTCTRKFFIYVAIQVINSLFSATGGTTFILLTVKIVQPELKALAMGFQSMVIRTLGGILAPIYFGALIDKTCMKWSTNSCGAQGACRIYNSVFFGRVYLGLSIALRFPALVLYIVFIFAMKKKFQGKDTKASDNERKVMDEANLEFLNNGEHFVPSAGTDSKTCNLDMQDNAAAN
Description: as §1, §2

[5] = test system: OATP1B3; parameters: method as in Elsby et al., 2016; conditions: ref Elsby et al., 2016; cited from earlier work

IC50 [3] [µM] | IC50 [4] [µM] | Structure (SMILES) | IC50 [1] [µM] | IC50 ([2]; substrate cerivastatin, ref Tamraz et al. (2013), read-out: IC50 OTAP1B1 (cerivastatin, CER, as substrate)) [µM] | IC50 ([2]; substrate estradiol 17β-glucuronide, ref Elsby et al. (2016), read-out: IC50 OTAP1B1 (estradiol 17β-glucuronide, e17βG, as substrate)) [µM] | Inhibition of OATP1B3-mediated RSV transport ([4]; 1 μM RSV, CPC 0.05–50 μM) | Individual contribution of OATP1B3 to hepatic uptake [5]
27.4 | > 50 | COC(=O)[C@H](c1ccccc1Cl)N1CCc2sccc2C1 [CP, clopidogrel] | 63 | 3.95 | 1.8 | did not inhibit; also recorded: did not affect | –
– | – | CC(C)c1nc(N(C)S(C)(=O)=O)nc(-c2ccc(F)cc2)c1/C=C/[C@@H](O)C[C@@H](O)CC(=O)O [RSV, rosuvastatin] | – | – | – | – | 0.11
